Measurements from PubChem BioAssay AID1794828.

Target: Solute carrier family 2, facilitated glucose transporter member 4 (Homo sapiens) (UniProt P14672)
Assay: SLC2A4-mediated glucose transport modulation – cell-based, flow cytometry, glucose FRET sensor, HEK293 JumpIN TRex, wild type, dose response (AID 1794828)
Conditions: HEK293 JumpIN SLC2A4-OE

Sequence of Solute carrier family 2, facilitated glucose transporter member 4 (Homo sapiens) (P14672 whole entry, looked up): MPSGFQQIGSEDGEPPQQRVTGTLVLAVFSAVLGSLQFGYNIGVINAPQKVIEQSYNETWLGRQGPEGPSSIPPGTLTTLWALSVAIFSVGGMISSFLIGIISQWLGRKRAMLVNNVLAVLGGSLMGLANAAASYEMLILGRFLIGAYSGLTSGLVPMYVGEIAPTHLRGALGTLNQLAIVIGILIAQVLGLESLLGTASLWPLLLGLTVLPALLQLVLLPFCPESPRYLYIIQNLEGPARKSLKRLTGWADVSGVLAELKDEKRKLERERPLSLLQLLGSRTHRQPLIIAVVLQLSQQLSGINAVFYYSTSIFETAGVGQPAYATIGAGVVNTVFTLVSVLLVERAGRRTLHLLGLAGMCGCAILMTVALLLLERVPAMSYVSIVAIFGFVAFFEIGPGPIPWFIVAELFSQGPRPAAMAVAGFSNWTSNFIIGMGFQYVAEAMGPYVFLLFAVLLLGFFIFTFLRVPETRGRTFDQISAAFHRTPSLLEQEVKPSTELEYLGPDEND

| IC50 | EC50 (substrate uptake, increase) | Structure (SMILES) |
| --- | --- | --- |
| 5.5 µM |  | Cc1c(NC(=O)c2cc(C(N)=O)nc3cc(F)ccc23)c(C(F)(F)F)nn1Cc1ccc(C#N)cc1 |
|  | 860 µM | OC[C@H]1OC(O)[C@H](O)[C@@H](O)[C@@H]1O (stereo partly drawn) |
| 2.5 µM |  | O=C(Oc1cccc(F)c1OC(=O)c1cccc(O)c1)c1cccc(O)c1 |
